For orientation: EC50 means the concentration needed to bring the measured effect to its halfway point. For orientation: Ki means the equilibrium dissociation constant of an inhibitor or competing ligand from its target.

Results on 5 compounds are retold here after paper PMC2374293, “The equilibrium and kinetic drug binding properties of the mouse P-gp1a and P-gp1b P-glycoproteins are similar” (British Journal of Cancer, 1999).

Experiment [1] has as its system P-gp. In words: Binding of [3H]progesterone to P-gp. As to conditions: data not shown. Further details: species or system mouse. The source says:
(§1) The two murine proteins share 84% amino acid identity, although the linker region which contains several sites for phosphorylation by protein kinase C (PKC) is the least conserved region between the two isoforms (Devault and Gros, 1990). […] P-gp1a is expressed at high levels in the intestine, liver and testis, and also in the lung and brain where it is thought to contribute to the blood-brain barrier (Schinkel et al, 1994). In contrast, P-gp1b is expressed in tissues associated with steroid biosynthesis and distribution, such as the adrenal gland and ovary, and is induced specifically in the uterus during pregnancy (Arceci et al, 1988; Trezise et al, 1992). The steroid hormone progesterone increases during pregnancy, and the mdr1b gene, but not the mdr1a gene, is regulated by a progesterone response element in its promoter (Piekarz et al, 1993). Direct evidence that the P-gp1b isoform can transport steroids comes from the observation that disruption of the mdr1b gene in mouse adrenal cells is associated with decreased adrenocorticotropic hormone-stimulated steroid secre- tion (Altuvia et al, 1993). […] More specifically, progesterone inhibits vinblastine binding and azidopine photolabelling of both of the mouse P-gp isoforms in vitro (Yang et al, 1990), showing that both isoforms are capable of interacting with steroids. […]

Experiment [2] has as its system drug-sensitive cells (LR73). As to the kind of experiment: Vinblastine sensitivity of drug-sensitive cells in culture. It is filed as cell-based, Chinese hamster. As to conditions: Cricetulus griseus.
Source text: as §1

Experiment [3] has as its system Drug-resistant lines (LR73-1a, LR73-1b). In words: Maximal vinblastine resistance level of drug-resistant lines in culture. It is filed as cell-based, Chinese hamster. The note with it: Cricetulus griseus, read-out: EC50, maximal resistance level of the cells.
Source text: as §1

Experiment [4] has as its target T1, P-gp1a (Mus musculus, UniProt P21447).
T1 construct: expressed in transfected cells; host or cells: Chinese hamster ovary LR73 cells (LR73-1a), plasma membrane fraction
In words: Displacement of equilibrium [3H]vinblastine binding, LR73-1a membranes.
Source text: as §1

Experiment [5] addresses T2, P-gp1b (Mus musculus, UniProt P06795).
T2 construct: expressed in transfected cells; host or cells: Chinese hamster ovary LR73 cells (LR73-1b), plasma membrane fraction
As to the kind of experiment: Displacement of equilibrium [3H]vinblastine binding, LR73-1b membranes.
Source text: as §1

For experiment [6], the target named is P-gp. In words: Sensitivity of [3H]vinblastine binding to DMSO. Further details: species or system mouse.
Source text: as §1

Experiment [7] has as its target T1, P-gp1a. As to the kind of experiment: Equilibrium (saturation) binding of [3H]vinblastine to LR73-1a plasma membranes, rapid filtration. The note with it: LR73-1a membranes, mean s.e.m.
Source text: as §1

Experiment [8] deals with T2, P-gp1b. In words: Equilibrium (saturation) binding of [3H]vinblastine to LR73-1b plasma membranes, rapid filtration. The source says: (§2) The two murine proteins share 84% amino acid identity, although the linker region which contains several sites for phosphorylation by protein kinase C (PKC) is the least conserved region between the two isoforms (Devault and Gros, 1990). […] P-gp1a is expressed at high levels in the intestine, liver and testis, and also in the lung and brain where it is thought to contribute to the blood-brain barrier (Schinkel et al, 1994). In contrast, P-gp1b is expressed in tissues associated with steroid biosynthesis and distribution, such as the adrenal gland and ovary, and is induced specifically in the uterus during pregnancy (Arceci et al, 1988; Trezise et al, 1992). The steroid hormone progesterone increases during pregnancy, and the mdr1b gene, but not the mdr1a gene, is regulated by a progesterone response element in its promoter (Piekarz et al, 1993). Direct evidence that the P-gp1b isoform can transport steroids comes from the observation that disruption of the mdr1b gene in mouse adrenal cells is associated with decreased adrenocorticotropic hormone-stimulated steroid secre- tion (Altuvia et al, 1993). […] More specifically, progesterone inhibits vinblastine binding and azidopine photolabelling of both of the mouse P-gp isoforms in vitro (Yang et al, 1990), showing that both isoforms are capable of interacting with steroids. However, if the distinct tissue-specific patterns of expression of P-gp1a and P-gp1b reflect differences in function related to steroid transport, it is important to show directly that the two proteins are functionally distinct. […] Summary The gene encoding the multidrug resistance P-glycoprotein (P-gp) is duplicated in rodent species and the functional basis for this remains unresolved. […] In the present study possible biochemical differences between the isoforms were directly investigated at the level of drug interaction. […]

Experiment [9] deals with T1, P-gp1a. In words: Association kinetics of [3H]vinblastine binding to LR73-1a membranes.
Source text: as §2

The target of experiment [10] is T2, P-gp1b. As to the kind of experiment: Association kinetics of [3H]vinblastine binding to LR73-1b membranes.
Source text: as §2

Experiment [11] in a line: [3H]vinblastine binding to LR73 membranes that do not express P-gp. As to conditions: data not shown. Further details: species or system Chinese hamster.
Source text: as §1

T1 sequence (P21447 whole entry): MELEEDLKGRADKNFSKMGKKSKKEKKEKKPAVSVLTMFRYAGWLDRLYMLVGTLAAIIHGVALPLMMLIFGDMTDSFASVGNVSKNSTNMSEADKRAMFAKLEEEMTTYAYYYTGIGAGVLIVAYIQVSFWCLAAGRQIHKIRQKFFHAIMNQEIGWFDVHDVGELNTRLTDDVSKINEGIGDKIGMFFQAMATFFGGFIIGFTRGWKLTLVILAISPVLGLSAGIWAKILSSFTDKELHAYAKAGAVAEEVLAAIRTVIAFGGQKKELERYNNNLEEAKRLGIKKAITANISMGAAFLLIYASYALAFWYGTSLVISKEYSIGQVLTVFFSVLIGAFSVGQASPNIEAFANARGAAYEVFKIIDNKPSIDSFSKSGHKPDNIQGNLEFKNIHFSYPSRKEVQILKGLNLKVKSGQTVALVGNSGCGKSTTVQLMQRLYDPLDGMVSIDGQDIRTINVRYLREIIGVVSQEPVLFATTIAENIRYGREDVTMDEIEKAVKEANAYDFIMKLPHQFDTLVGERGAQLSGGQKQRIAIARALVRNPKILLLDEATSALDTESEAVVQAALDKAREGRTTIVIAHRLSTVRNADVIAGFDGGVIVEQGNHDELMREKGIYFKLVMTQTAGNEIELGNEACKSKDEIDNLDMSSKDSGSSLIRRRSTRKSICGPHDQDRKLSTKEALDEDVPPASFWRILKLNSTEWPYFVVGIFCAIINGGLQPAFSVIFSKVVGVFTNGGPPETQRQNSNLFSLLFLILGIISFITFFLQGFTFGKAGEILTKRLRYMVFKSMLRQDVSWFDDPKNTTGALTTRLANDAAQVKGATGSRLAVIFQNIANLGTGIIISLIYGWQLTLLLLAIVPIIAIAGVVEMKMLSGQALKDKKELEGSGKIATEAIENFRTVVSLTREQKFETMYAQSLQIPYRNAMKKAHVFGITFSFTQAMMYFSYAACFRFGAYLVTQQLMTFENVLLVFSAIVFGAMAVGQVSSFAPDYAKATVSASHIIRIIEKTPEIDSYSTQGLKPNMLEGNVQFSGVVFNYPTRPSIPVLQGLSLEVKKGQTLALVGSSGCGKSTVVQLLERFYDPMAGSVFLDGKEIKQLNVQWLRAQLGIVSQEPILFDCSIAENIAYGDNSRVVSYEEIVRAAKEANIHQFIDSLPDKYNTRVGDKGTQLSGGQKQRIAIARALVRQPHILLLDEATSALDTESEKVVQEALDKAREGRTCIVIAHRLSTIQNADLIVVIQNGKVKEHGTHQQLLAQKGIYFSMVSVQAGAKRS
T2 sequence (P06795 whole entry): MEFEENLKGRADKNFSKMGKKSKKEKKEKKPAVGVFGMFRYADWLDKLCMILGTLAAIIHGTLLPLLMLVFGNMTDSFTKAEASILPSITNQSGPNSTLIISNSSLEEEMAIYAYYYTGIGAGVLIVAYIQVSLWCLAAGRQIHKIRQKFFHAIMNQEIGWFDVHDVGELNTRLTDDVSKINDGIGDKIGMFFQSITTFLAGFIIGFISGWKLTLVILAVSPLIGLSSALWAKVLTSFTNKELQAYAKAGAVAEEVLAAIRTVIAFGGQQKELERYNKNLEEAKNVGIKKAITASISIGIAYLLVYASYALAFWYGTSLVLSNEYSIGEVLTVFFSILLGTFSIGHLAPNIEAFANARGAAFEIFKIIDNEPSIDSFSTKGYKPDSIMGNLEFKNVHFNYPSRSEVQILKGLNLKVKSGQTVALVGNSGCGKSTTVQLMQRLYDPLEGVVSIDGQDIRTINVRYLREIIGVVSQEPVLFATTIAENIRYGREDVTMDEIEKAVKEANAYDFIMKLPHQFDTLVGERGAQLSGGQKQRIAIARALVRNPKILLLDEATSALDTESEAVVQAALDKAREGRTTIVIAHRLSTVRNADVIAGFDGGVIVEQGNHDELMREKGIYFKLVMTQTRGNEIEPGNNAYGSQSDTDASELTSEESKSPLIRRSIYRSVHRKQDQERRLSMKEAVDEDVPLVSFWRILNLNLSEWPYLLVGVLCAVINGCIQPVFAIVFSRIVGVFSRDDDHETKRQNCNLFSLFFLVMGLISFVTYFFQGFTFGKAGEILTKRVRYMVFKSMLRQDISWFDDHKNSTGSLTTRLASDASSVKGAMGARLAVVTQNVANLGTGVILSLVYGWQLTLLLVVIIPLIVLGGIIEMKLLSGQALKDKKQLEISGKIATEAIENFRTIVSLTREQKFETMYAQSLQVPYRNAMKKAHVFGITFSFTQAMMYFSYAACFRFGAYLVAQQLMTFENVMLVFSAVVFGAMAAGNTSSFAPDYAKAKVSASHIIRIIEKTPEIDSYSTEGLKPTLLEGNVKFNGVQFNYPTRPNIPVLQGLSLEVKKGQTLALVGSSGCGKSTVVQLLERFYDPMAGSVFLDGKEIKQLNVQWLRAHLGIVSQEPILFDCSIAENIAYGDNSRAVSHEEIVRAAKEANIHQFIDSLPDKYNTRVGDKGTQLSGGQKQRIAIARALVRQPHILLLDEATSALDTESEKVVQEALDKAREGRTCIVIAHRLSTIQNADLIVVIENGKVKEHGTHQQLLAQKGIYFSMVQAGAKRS

Turning to `CC(=O)[C@H]1CC[C@H]2[C@@H]3CCC4=CC(=O)CC[C@]4(C)[C@H]3CC[C@]12C` [[3H]progesterone], in the experiment on P-gp [1], the “binding characteristics to P-gp” value was “poor affinity, low specific binding”.
Turning to `CC[C@]1(O)C[C@@H]2CN(CCc3c([nH]c4ccccc34)[C@@](C(=O)OC)(c3cc4c(cc3OC)N(C)[C@H]3[C@@](O)(C(=O)OC)[C@H](OC(C)=O)[C@]5(CC)C=CCN6CC[C@]43[C@@H]65)C2)C1` [vinblastine sulphate, Vinblastine sulphate], the EC50 in [2] was 0.01 µg/mL; in experiment [3] it was 0.2 to 0.25 µg/mL.
With `CC(=O)[C@H]1CC[C@H]2[C@@H]3CCC4=CC(=O)CC[C@]4(C)[C@H]3CC[C@]12C` [progesterone], the Ki was 1900 nM on P-gp1a [4] and 1800 nM on P-gp1b [5].
On to `C[S+](C)[O-]` [DMSO, dimethylsulphoxide], for which the “EC50 on [3H]vinblastine binding” value on P-gp [6] is listed as 2.5 % (v/v).
On to `CC[C@]1(O)C[C@@H]2CN(CCc3c([nH]c4ccccc34)[C@@](C(=O)OC)(c3cc4c(cc3OC)N(C)[C@H]3[C@@](O)(C(=O)OC)[C@H](OC(C)=O)[C@]5(CC)C=CCN6CC[C@]43[C@@H]65)C2)C1` [[3H]vinblastine], for which the Kd was 32.9 nM at P-gp1a [7] (equilibrium, read-out: Kd, affinity of [3H]vinblastine binding); 30.7 nM at P-gp1b [8] (LR73-1b membranes, equilibrium, mean s.e.m., read-out: Kd, affinity of [3H]vinblastine binding); 35 nM at P-gp1a [9] (P-gp1a, read-out: Estimate of dissociation constant (Kd = k-1/k+1) using the kinetic data); 55 nM at P-gp1b [10] (P-gp1b, read-out: Estimate of dissociation constant (Kd = k-1/k+1) using the kinetic data). The “Bmax, density of specific binding sites” value at P-gp1a [7] was 24.5 2.9 pmol mg-1; on P-gp1b [8] (LR73-1b membranes, mean s.e.m.), 14.1 2.9 pmol mg-1. The Bmax on P-gp1b [8] (Figure 2, single representative experiment) is recorded as 8.6 1.4 pmol mg-1. The “association rate constant (k+1)” value on P-gp1a [9] (LR73-1a membranes, 15-20 nM [3H]vinblastine) was 0.002 0.0005 min-1 nM-1; on P-gp1b [10] (LR73-1b membranes, 15-20 nM [3H]vinblastine) it was 0.002 0.0006 min-1 nM-1. The “rate constant of [3H]vinblastine dissociation (k-1)” value at P-gp1a [9] (LR73-1a membranes, derived from Figure 3) is given as 0.07 0.02 min-1; on P-gp1b [10] (LR73-1b membranes, derived from Figure 3), 0.11 0.02 min-1. Also, the specific binding entry in experiment [11] is reported as “did not bind specifically”.
